Consider 9 compounds from ChEMBL document CHEMBL1139277, “Synthesis of tyrosinase inhibitory (4-oxo-4H-pyran-2-yl)acrylic acid ester derivatives” (Bioorg Med Chem Lett, 2009).

The test system of assay [1] is B16-F10. As to the kind of experiment: Inhibition of melanin production in mouse B16F10 cells at 20 ug/ml after 72 hrs relative to control. Format: functional. The settings on record: B16-F10, 72 h.
Assay [2] relates to B16-F10. As to the kind of experiment: Inhibition of melanin production in mouse B16F10 cells at 40 ug/ml after 72 hrs relative to control. Format: functional. The conditions noted are these: B16-F10, 72 h.
For assay [3], the system named is B16-F10. As to the kind of experiment: Cytotoxicity against mouse B16F10 cells at 20 ug/ml after 72 hrs by MTT assay. It is filed as functional. (In general: Formazan colour is commonly taken as a measure of viable cells.)
Assay [4] concerns B16-F10. As to the kind of experiment: Cytotoxicity against mouse B16F10 cells at 40 ug/ml after 72 hrs by MTT assay. It is filed as functional.
Assay [5] deals with T1, Tyrosinase (Agaricus bisporus, UniProt O42713).
T1 sequence (O42713 whole entry): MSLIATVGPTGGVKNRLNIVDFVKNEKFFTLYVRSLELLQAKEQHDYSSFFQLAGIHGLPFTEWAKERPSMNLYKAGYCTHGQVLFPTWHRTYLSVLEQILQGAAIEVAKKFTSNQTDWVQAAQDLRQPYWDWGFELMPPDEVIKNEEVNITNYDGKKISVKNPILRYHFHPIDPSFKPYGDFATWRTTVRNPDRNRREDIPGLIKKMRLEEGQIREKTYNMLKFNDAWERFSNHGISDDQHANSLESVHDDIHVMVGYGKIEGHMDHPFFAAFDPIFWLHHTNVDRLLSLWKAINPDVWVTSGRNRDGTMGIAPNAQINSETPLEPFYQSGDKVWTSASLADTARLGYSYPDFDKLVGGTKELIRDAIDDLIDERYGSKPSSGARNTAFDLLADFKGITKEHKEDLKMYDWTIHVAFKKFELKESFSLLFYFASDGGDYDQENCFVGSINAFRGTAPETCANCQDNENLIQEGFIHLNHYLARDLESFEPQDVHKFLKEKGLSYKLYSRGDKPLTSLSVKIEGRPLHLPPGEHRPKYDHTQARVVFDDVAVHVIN
As to the kind of experiment: Inhibition of mushroom tyrosinase.

A value given as a limit tells only on which side of the number the result lay.

As usually defined, the inhibition is the percentage by which the read-out fell short of the control. Low readings indicate a weak effect, high ones a strong effect. As a reminder, the IC50 is the concentration at which inhibition is half-maximal. A high value points to a need for much substance. As to `CCOC(=O)/C=C/c1cc(=O)c(O)co1`, 20 µg/mL produced 46.1% inhibition in assay [1]. The inhibition at 40 µg/mL in assay [2] was found to be 65%. Moreover, the Activity in assay [3] is 72%; in assay [4], 39.2%. The compound also returned an IC50 in assay [5] of 36.3 µM.
In assay [1], `O=C(/C=C/c1cc(=O)c(O)co1)OCCO` showed an inhibition at 20 µg/mL of 30%. The compound also returned an inhibition at 40 µg/mL in assay [2] of 41.6%. The Activity in assay [3] was 80.5%; in assay [4], 74.8%. In assay [5], the IC50 is 74.9 µM.
As to `COCCOC(=O)/C=C/c1cc(=O)c(O)co1`, the inhibition at 20 µg/mL in assay [1] came out at 29.6%. Besides, in assay [2], at 40 µg/mL the inhibition was 47.8%. Moreover, the Activity in assay [3] was 81.1%; in assay [4] it was 65.4%. Moreover, in assay [5], inhibition was half-maximal at 98.1 µM (IC50).
In assay [1], `O=C(/C=C/c1cc(=O)c(O)co1)OCCOCCOCCO` gave an inhibition at 20 µg/mL of 8.7%. Further, at 40 µg/mL the inhibition in assay [2] was 17.9%. The Activity amounted to 84.9% in assay [3] and 78.5% in assay [4]. For the same compound, in assay [5], the IC50 was determined as 79.2 µM.
On the same counts, the results for `CCCCCCCCOC(=O)/C=C/c1cc(=O)c(O)co1` are 25%, 54.6%, 85%, 62.5% and above 400 µM.
On the same counts, the results for `COCCOCCOC(=O)/C=C/c1cc(=O)c(O)co1` are 19.5%, 24%, 88.7%, 83.4% and 59.1 µM.
`CC(C)OC(=O)/C=C/c1cc(=O)c(O)co1` gave an inhibition at 20 µg/mL in assay [1] of 19.5%. The inhibition at 40 µg/mL in assay [2] amounted to 69.8%. Besides, the Activity came out at 50.9% in assay [3] and 37.4% in assay [4]. Also, in assay [5], half-maximal inhibition (IC50) was put at 80.3 µM.
In assay [1], `COCCOCCOCCOC(=O)/C=C/c1cc(=O)c(O)co1` had an inhibition at 20 µg/mL of 11%. Further, in assay [2], 40 µg/mL produced 25.4% inhibition. In addition, the Activity in assay [3] is listed as 83.9%; in assay [4], 79.7%. Moreover, in assay [5], the IC50 turned out to be 67.6 µM.
For `O=C(/C=C/c1cc(=O)c(O)co1)OCCOCCO`, in assay [1], the inhibition at 20 µg/mL came out at 20.1%. The compound also yielded an inhibition at 40 µg/mL in assay [2] of 32.4%. Moreover, the values for the Activity in assay [3] and in assay [4] were 84.6% and 89.4%, respectively. The compound also returned an IC50 in assay [5] of 26.5 µM.
